From patent publication US5849710A, “Substituted indolylmethylene-oxindole analogues as tyrosine kinase inhibitors” (Pharmacia & Upjohn S.p.A., priority 1995, dated 1998)

Tests used:
[1] = molecular target: p45 v-abl tyrosine kinase; test: in-vitro p45 v-abl kinase assay ((Val^5)-Angiotension II phosphorylation); type: biochemical, Abelson murine leukaemia virus; conditions: ATP 50 μM, fixed peptide concentration, 40 ng abl-kinase, pH 8.0, 30° C.; read-out: Inhibition of p45 kinase, IC50 v-abl
Method: p45 v-abl Kinase Purification
The enzyme used in our test was the p45 v-abl tyrosine kinase which represents the catalytic domain of the Abelson tyrosine kinase (isolated from the Abelson murine leukaemia virus). The p45 v-abl kinase was produced and isolated as described by Wang et al. in J. Biol. Chem. 260, 64 (1985) and by Ferguson et al. in J. Biol. Chem. 260, 3652 (1985) and in Biochem. J. 257, 321 (1989).
(Val^5)-Angiotension II phosphorylation was performed by incubation with 40 ng of purified abl-kinase and (γ-^32 p)-ATP, in 50 μl of buffer containing Tris-HCl 25 mM, pH 8.0, MgCl2 10 mM and dithiothreitol 0.1 mM (kinase buffer). The reaction mixture was incubated for the indicated time at 30° C. and the reaction stopped by adding 50 μl of 5% trichloroacetic acid. After a brief incubation on ice, tubes were centrifuged. The supernatants were spotted on phosphocellulose paper squares (Whatman P-81) and washed extensively in acetic acid. The radioactivity bound to dried phosphocellulose squares was measured in a liquid scintillation counter. IC50 values were calculated from triplicated determinations of each experimental point. Each inhibitor was tested at concentrations ranging from […] in the presence of fixed concentrations of peptide (2 Mm) and ATP (50 μM). […]

[2] = test system: K562 cells; test: K562 cell growth inhibition assay; type: cell-based; conditions: human chronic myeloid leukemia K562 cells, 72 h, cell count vs untreated control
Method: K562 Cell Growth Inhibition Assay
K562 cells, a human myelogenous leukemia cell line, were seeded into a 24 wells tissue culture plate (Falcon 3047) (10000/well) in the presence of increasing concentrations of the compounds. After 72 h, cells were harvested and were counted using a cell counter (Coulter Counter-ZM). The percent of inhibition was evaluated in respect to the untreated control cells.
The inhibitory activity data for a representative group of compounds according to the present invention, obtained both in the in-vitro p45 v-abl kinase assay and in the in-vivo human chronic myeloid leukemia K562 cell growth inhibition assay described above, are set out in following Table 1.

SMILES | IC50 [1] | IC50 [2]
COc1ccc2[nH]cc(C=C3C(=O)Nc4ccc(NC(=O)[C@H](C)NC(=O)[C@@H](N)CCC(=O)O)cc43)c2c1 [FCE 28437, 5-L-glutamyl-L-alanylamino-3-[(5'-methoxy-3'-indolyl)methylene]-2-indolinone] | 0.5 µM | 14.8 µM
O=C1Nc2ccc(C(=O)CN3CCCCC3)cc2C1=Cc1c[nH]c2ccccc12 [FCE 28484, 3-(indol-3-ylmethylene)-5-(2-piperidin-1-yl-acetyl)-2-indolinone] | 0.78 µM | 4.82 µM
